The text below walks through data of US20130303562A1, “CHEMICAL AND RNAI SUPPRESSORS OF NEUROTOXICITY IN HUNTINGTON'S DISEASE” (priority 2010, published 2013).

The test system of one test is HD model strain mice. Kind of test: Morris water maze assay in HD model strain mice. As to conditions: treated from 4 weeks, tested at 8 weeks of age, vs untreated HD mice. Type of test: in vivo, mouse. An excerpt: Mouse strains: Mouse strain names provided herein adhere to the Guidelines for Nomenclature of Mouse and Rat Strains, Revised October 2011, International Committee on Standardized Genetic Nomenclature for Mice, accessible at www.informatics.jax.org/mgihome/nomen/strains.shtml. Official gene symbols, or, where appropriate, official mouse strain names of the Jackson Laboratory (www.jax.org, e.g., the Jackson Laboratory Mice Database at jaxmice.jax.org) are used. There are numerous HD mouse strains suitable for candidate compound or nucleic acid construct screening, and for pre-clinical evaluations of candidates for the treatment of HD such as the HD model strains R6/2, R6/1, N171-82Q, CAG140, HdhQ111, BACHD, and CAG150 (Crook Z R, Housman D (2011) Huntington's disease: can mice lead the way to treatment? Neuron. 69:423-35; the entire contents of which are incorporated herein by reference). The HD model strains differ in their manifestations and time line of HD-like symptoms, e.g., motor and cognitive dysfunctions. […]
Morris water maze assay: The water maze assay measures spatial learning in mice. […] The sixth day has a single-trial probe test without the platform, and the time spent in each quadrant is recorded. […] The navigation of the mice is tracked by video camera, and the escape latency to the platform is recorded. […]

The subject of test [1] is subject having or suspected of having the polyQ tract expansion disease HD. The test is described as follows: Oral carbenoxolone in subjects having or suspected of having HD. Type of test: in vivo, human. As to conditions: about 100-700 mg/day. Here is the method:
The carbenoxolone is administered orally in tablet form, for example, as carbenoxolone disodium salt. The dosage is within the range of about 100-700 mg/day, for example at about 150 mg/day, about 300 mg/day, or about 600 mg/day. […] Such monitoring includes measuring cognitive and motor function in the subject, and/or determining whether a slowing or reversal of a personality change commonly associated with HD is observable. In some instances, the monitoring includes measuring the aggregation of Htt protein, the number or size of inclusion bodies, and/or brain tissue homeostasis (e.g. detection of improved survival of neuronal cells and/or reduction in astrocytes). […] After a period of time sufficient for a desired change, e.g. an amelioration in an HD symptom, to manifest, the subject is then monitored for such a change. For example, the subject, in some embodiments, is monitored for cognitive function, for example, within a time frame of about a week to about 6 months (e.g., about one month or about two months) after administration is commenced. […] For example, in some embodiments, the dose may be increased from about 150 mg/day to about 300 mg/day. In some embodiments, the subject is monitored again for symptoms after dose adjustment and, if the symptoms persist at the same severity level, the dose is increased further. […]

With `CC1(C)[C@@H](OC(=O)CCC(=O)O)CC[C@]2(C)[C@H]3C(=O)C=C4[C@@H]5C[C@@](C)(C(=O)O)CC[C@]5(C)CC[C@@]4(C)[C@]3(C)CC[C@@H]12` [Carbenoxolone], in the test with HD model strain mice, the “Impairment of cognitive capabilities (latency to escape, water maze)” value is recorded as “lesser degree of impairment”. For the same molecule, the “HD symptoms (cognition, motor function, personality change)” value in test [1] was “improvement of at least some HD symptoms”.
